From US11504349B2, “Composition for preventing or treating TNF-related diseases, containing novel derivative as active ingredient, and method for inhibiting TNF activity by using same” (ILAB, priority 2017, dated 2022)

Experiments:
[1] = molecular target: TNF (Homo sapiens, UniProt P01375); assay: TNF-neutralization bioassay: TNF-induced cell death of LM cells (MTT); assay type: cell-based; conditions: for inhibition at 50 µM: compound 50 μM, TNF 20 ng/ml, actinomycin D, LM cells, 24 hours; for IC50: inhibition of TNF-induced LM cell death
Method: (§1) First, the addition of recombinant TNF to mouse fibroblast LM cells induces cell death, and thus, by using the same, the TNF-neutralization bioassay was constructed. In other words, LM cells were pretreated with TNF (20 ng/ml) and the compounds synthesized in the above examples at various concentrations (5×10^4 cells/well), and a sensitizer actinomycin D ([…]) was added, and cultured in a CO2 incubator for 24 hours, and then the MTT assay was carried out. At this time, 10 μl of MTT (5 mg/ml stock) was added, reacted for 4 hours, and then dissolved in DMSO to measure the absorbance at 570 nm. First, the TNF cell death inhibition/neutralization action of TNF-target expected compounds at single concentration (50 or 10 μM) was measured. Second, IC50 values were determined by treating with the compounds having an excellent effect at different concentrations. The % inhibition of TNF was calculated using the following formula: % inhibition of TNF=(OD value of a group treated with TNF and compound−OD value of TNF treated group/(OD value of TNF untreated group−OD value of TNF treated group)×100.
(§2) IC50 values were statistically analyzed using Prism 6 (GraphPad) (IC50: 50% inhibitory concentration, CC50: 50% cytotoxic concentration).

[2] = Cytotoxicity (CC50) in LM cells, MTT assay; assay type: cell-based; conditions: mouse, LM cells (mouse fibroblasts); 50% cytotoxic concentration
Method: as §1, §2

Sequence of TNF (P01375 77-233 limits assumed): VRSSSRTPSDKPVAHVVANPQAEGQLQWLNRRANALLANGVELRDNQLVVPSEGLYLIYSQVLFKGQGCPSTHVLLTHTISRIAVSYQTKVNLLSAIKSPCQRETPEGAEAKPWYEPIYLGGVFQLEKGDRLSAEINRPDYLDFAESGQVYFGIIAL

melting point [°C] | Structure (SMILES) | inhibition at 50 µM [1] [%] | IC50 [1] [µM] | CC50 at 24 h [2] [µM]
193 to 196 | O=C(O)c1c(-c2cccc(F)c2)oc2ccccc2c1=O [Example 16, 2-(3-fluorophenyl)-3-carboxy-(4H)-4-benzopyranone] | 70.2 | 16.8 | > 50
208 to 209 | O=C(O)c1c(-c2cc(F)cc(F)c2)oc2ccccc2c1=O [Example 17, 2-(3,5-difluorophenyl)-3-carboxy-(4H)-4-benzopyranone] | 71 | 2.5 | > 50
227 to 228 | Cc1cccc2c(=O)c(C(=O)O)c(-c3ccco3)oc12 [Example 20, 2-(2-furanyl)-3-carboxy-8-methyl-(4H)-4-benzopyranone] | 59 |  | 
217 to 218 | Cc1ccc2c(=O)c(C(=O)O)c(-c3ccco3)oc2c1 [Example 21, 2-(2-furanyl)-3-carboxy-7-methyl-(4H)-4-benzopyranone] | 55.2 |  | 
195 to 197 | Cc1ccc2oc(-c3ccco3)c(C(=O)O)c(=O)c2c1 [Example 22, 2-(2-furanyl)-3-carboxy-6-methyl-(4H)-4-benzopyranone] | 50.4 |  | 
209 to 211 | Cc1cccc(-c2oc3c(C)cccc3c(=O)c2C(=O)O)c1 [Example 25, 2-(3-methylphenyl)-3-carboxy-8-methyl-(4H)-4-benzopyranone] | 41 |  | 
152 to 155 | Cc1cccc(-c2oc3cc(C)ccc3c(=O)c2C(=O)O)c1 [Example 26, 2-(3-methylphenyl)-3-carboxy-7-methyl-(4H)-4-benzopyranone] | 45.1 |  | 
192 to 195 | Cc1cccc(-c2oc3ccc(C)cc3c(=O)c2C(=O)O)c1 [Example 27, 2-(3-methylphenyl)-3-carboxy-6-methyl-(4H)-4-benzopyranone] | 65.2 |  | 
179 to 181 | Cc1cccc(-c2oc3cc(Cl)ccc3c(=O)c2C(=O)O)c1 [Example 28, 2-(3-methylphenyl)-3-carboxy-7-chloro-(4H)-4-benzopyranone] | 34.9 |  | 
218 to 220 | Cc1cccc(-c2oc3ccc(Cl)cc3c(=O)c2C(=O)O)c1 [Example 29, 2-(3-methylphenyl)-3-carboxy-6-chloro-(4H)-4-benzopyranone] | 45.7 |  | 
205 to 206 | Cc1cccc2c(=O)c(C(=O)O)c(-c3cccs3)oc12 [Example 31, 2-(2-thiophenyl)-3-carboxy-8-methyl-(4H)-4-benzopyranone] | 24.8 |  | 
202 to 203 | Cc1ccc2c(=O)c(C(=O)O)c(-c3cccs3)oc2c1 [Example 32, 2-(2-thiophenyl)-3-carboxy-7-methyl-(4H)-4-benzopyranone] | 23.6 |  | 
153 to 155 | Cc1ccc2oc(-c3cccs3)c(C(=O)O)c(=O)c2c1 [Example 33, 2-(2-thiophenyl)-3-carboxy-6-methyl-(4H)-4-benzopyranone] | 20.7 |  | 
232 to 233 | O=C(O)c1c(-c2cccs2)oc2cc(Cl)ccc2c1=O [Example 34, 2-(2-thiophenyl)-3-carboxy-7-chloro-(4H)-4-benzopyranone] | 21.7 |  | 
202 to 204 | O=C(O)c1c(-c2cccs2)oc2ccc(Cl)cc2c1=O [Example 35, 2-(2-thiophenyl)-3-carboxy-6-chloro-(4H)-4-benzopyranone] | 28.1 |  | 
210 to 212 | O=C(O)c1c(-c2cccs2)oc2ccc(Br)cc2c1=O [Example 36, 2-(2-thiophenyl)-3-carboxy-6-bromo-(4H)-4-benzopyranone] | 27 |  | 
210 to 212 | COc1ccc(-c2oc3c(C)cccc3c(=O)c2C(=O)O)cc1OC [Example 37, 2-(3,4-dimethoxyphenyl)-3-carboxy-8-methyl-(4H)-4-benzopyranone] | 33.4 |  | 
200 to 201 | COc1ccc(-c2oc3cc(C)ccc3c(=O)c2C(=O)O)cc1OC [Example 38, 2-(3,4-dimethoxyphenyl)-3-carboxy-7-methyl-(4H)-4-benzopyranone] | 30.9 |  | 
226 to 227 | COc1ccc(-c2oc3cc(Cl)ccc3c(=O)c2C(=O)O)cc1OC [Example 39, 2-(3,4-dimethoxyphenyl)-3-carboxy-7-chloro-(4H)-4-benzopyranone] | 24.5 |  | 

melting point [°C] | Structure (SMILES) | inhibition at 50 µM [1] [%] | IC50 [1] [µM] | CC50 at 24 h [2] [µM]
227 to 229 | Cc1cccc2c(=O)c(C(=O)O)c(-c3cccc(F)c3)oc12 [Example 41, 2-(3-fluorophenyl)-3-carboxy-8-methyl-(4H)-4-benzopyranone] | 37.2 |  | 
178 to 181 | Cc1ccc2c(=O)c(C(=O)O)c(-c3cccc(F)c3)oc2c1 [Example 42, 2-(3-fluorophenyl)-3-carboxy-7-methyl-(4H)-4-benzopyranone] | 23 |  | 
214 to 215 | Cc1ccc2oc(-c3cccc(F)c3)c(C(=O)O)c(=O)c2c1 [Example 43, 2-(3-fluorophenyl)-3-carboxy-6-methyl-(4H)-4-benzopyranone] | 19.4 |  | 
243 to 244 | Cc1cccc2c(=O)c(C(=O)O)c(-c3cc(F)cc(F)c3)oc12 [Example 47, 2-(3,5-difluorophenyl)-3-carboxy-8-methyl-(4H)-4-benzopyranone] | 21.4 |  | 
220 to 222 | Cc1ccc2c(=O)c(C(=O)O)c(-c3cc(F)cc(F)c3)oc2c1 [Example 48, 2-(3,5-difluorophenyl)-3-carboxy-7-methyl-(4H)-4-benzopyranone] | 29 |  | 
238 to 240 | Cc1ccc2oc(-c3cc(F)cc(F)c3)c(C(=O)O)c(=O)c2c1 [Example 49, 2-(3,5-difluorophenyl)-3-carboxy-6-methyl-(4H)-4-benzopyranone] | 37.7 |  | 
167 to 169 | Cc1cccc2c(=O)c(C(=O)O)c(-c3cccc(F)c3F)oc12 [Example 52, 2-(2,3-difluorophenyl)-3-carboxy-8-methyl-(4H)-4-benzopyranone] | 18.5 |  | 
155 to 156 | Cc1ccc2c(=O)c(C(=O)O)c(-c3cccc(F)c3F)oc2c1 [Example 53, 2-(2,3-difluorophenyl)-3-carboxy-7-methyl-(4H)-4-benzopyranone] | 22.8 |  | 
120 to 122 | Cc1ccc2oc(-c3cccc(F)c3F)c(C(=O)O)c(=O)c2c1 [Example 54, 2-(2,3-difluorophenyl)-3-carboxy-6-methyl-(4H)-4-benzopyranone] | 26.5 |  | 
170 to 172 | Cc1cccc2c(=O)c(C(=O)O)c(-c3cc(F)ccc3F)oc12 [Example 58, 2-(2,5-difluorophenyl)-3-carboxy-8-methyl-(4H)-4-benzopyranone] | 33.8 |  | 
156 to 158 | Cc1ccc2c(=O)c(C(=O)O)c(-c3cc(F)ccc3F)oc2c1 [Example 59, 2-(2,5-difluorophenyl)-3-carboxy-7-methyl-(4H)-4-benzopyranone] | 32.3 |  | 
≥ 120 | Cc1ccc2oc(-c3cc(F)ccc3F)c(C(=O)O)c(=O)c2c1 [Example 60, 2-(2,5-difluorophenyl)-3-carboxy-6-methyl-(4H)-4-benzopyranone] | 28.1 |  | 
203 to 204 | Cc1cccc2c(=O)c(C(=O)O)c(-c3ccc(F)c(F)c3)oc12 [Example 64, 2-(3,4-difluorophenyl)-3-carboxy-8-methyl-(4H)-4-benzopyranone] | 47.2 |  | 
202 to 204 | Cc1ccc2c(=O)c(C(=O)O)c(-c3ccc(F)c(F)c3)oc2c1 [Example 65, 2-(3,4-difluorophenyl)-3-carboxy-7-methyl-(4H)-4-benzopyranone] | 25.1 |  | 
222 to 223 | Cc1ccc2oc(-c3ccc(F)c(F)c3)c(C(=O)O)c(=O)c2c1 [Example 66, 2-(3,4-difluorophenyl)-3-carboxy-6-methyl-(4H)-4-benzopyranone] | 37 |  | 
217 to 219 | Cc1cccc2c(=O)c(C(=O)O)c(-c3ccc(Cl)cc3)oc12 [Example 68, 2-(4-chlorophenyl)-3-carboxy-8-methyl-(4H)-4-benzopyranone] | 15.8 |  | 
220 to 222 | Cc1ccc2c(=O)c(C(=O)O)c(-c3ccc(Cl)cc3)oc2c1 [Example 69, 2-(4-chlorophenyl)-3-carboxy-7-methyl-(4H)-4-benzopyranone] | 14.6 |  | 
212 to 227 | Cc1ccc2oc(-c3ccc(Cl)cc3)c(C(=O)O)c(=O)c2c1 [Example 70, 2-(4-chlorophenyl)-3-carboxy-6-methyl-(4H)-4-benzopyranone] | 28.9 |  | 
212 to 213 | O=C(O)c1c(-c2ccc(Cl)cc2)oc2ccccc2c1=O [Example 73, 2-(4-chlorophenyl)-3-carboxy-(4H)-4-benzopyranone] | 42 |  | 
